Source: patent US4364958A, “1-Substituted-3-cycloalkyl-sulfonyl-pyrrolidine-2,5-dione derivatives and fungicidal compositions thereof” (Chinoin Gyogyszer es Vegyeszeti Termekek Gyara Rt., priority 1979, dated 1982)
Values after ≈ are worked out from the molar mass of the structure shown. Where two headings read alike, the source gives them in different places.

What was measured:
Assay in all cases: minimal inhibitory concentration in Sabouraud medium
Format in all cases: cell-based
[1] = system: Penicillium digitatum CBS.31948; conditions: Penicillium digitatum
Text: Penicillium digitatum CBS.31948
(§1) As a medium Saboroud medium was employed.

[2] = system: Trichophyton rubrum CBS.30338; conditions: Trichophyton rubrum
Text: Trichophyton rubrum CBS.30338
as §1

[3] = system: Saccharomyces cerevisiae OKI.1282; conditions: Saccharomyces cerevisiae
Text: Saccharomyces cerevisiae OKI.1282
as §1

[4] = system: Aspergillus niger CBS.12648; conditions: Aspergillus niger
Text: Aspergillus niger CBS.12648
as §1

[5] = system: Epidermophyton floccosum OKI/IV.; conditions: Epidermophyton floccosum
Text: Epidermophyton floccosum OKI/IV.
as §1

[6] = system: Sporotrichum schenkii CBS.34035; conditions: Sporotrichum
Text: Sporotrichum schenkii CBS.34035
as §1

[7] = system: Trichophyton mentagrophytes CBS.50148; conditions: Trichophyton mentagrophytes
Text: Trichophyton mentagrophytes CBS.50148
as §1

Candida albicans CBS.562 = conditions: Candida albicans
Text: Candida albicans CBS.562 "2"
as §1

[8] = 72 h, read-out: minimal inhibitory concentration
[9] = 144 h, read-out: minimal inhibitory concentration
[10] = 288 h, read-out: minimal inhibitory concentration
[11] = CBS.50148, 72 h, 72 hours, read-out: minimal inhibitory concentration
[12] = CBS.50148, 144 h, 144 hours, read-out: minimal inhibitory concentration
[13] = CBS.50148, 288 h, 288 hours, read-out: minimal inhibitory concentration
[14] = read-out: Minimal inhibitory concentration inhibiting the growth
[15] = CBS.50148, read-out: Minimal inhibitory concentration inhibiting the growth

Structure (SMILES) | MIC ([1]; CBS.31948, 72 h, 72 hours) [µg/mL] | MIC ([1]; CBS.31948, 144 h, 144 hours) [µg/mL] | MIC ([1]; CBS.31948, 288 h, 288 hours) [µg/mL] | MIC ([2]; CBS.30338, 72 h, 72 hours) [µg/mL] | MIC ([2]; CBS.30338, 144 h, 144 hours) [µg/mL] | MIC ([2]; CBS.30338, 288 h, 288 hours) [µg/mL] | MIC ([4]; CBS.12648, 72 h, 72 hours) [µg/mL] | MIC ([4]; CBS.12648, 144 h, 144 hours) [µg/mL] | MIC ([4]; CBS.12648, 288 h, 288 hours) [µg/mL] | MIC [5, 8] [µg/mL] | MIC [5, 9] [µg/mL] | MIC [5, 10] [µg/mL] | MIC ([6]; CBS.34035, 72 h, 72 hours) [µg/mL] | MIC ([6]; CBS.34035, 144 h, 144 hours) [µg/mL] | MIC ([6]; CBS.34035, 288 h, 288 hours) [µg/mL] | MIC [7, 11] [µg/mL] | MIC [7, 12] [µg/mL] | MIC [7, 13] [µg/mL] | MIC [5, 14] [µg/mL] | MIC [7, 15] [µg/mL] | also measured
Cc1cccc(N2C(=O)CC(S(=O)(=O)C3CCCCC3)C2=O)c1 (centres unmarked) [1-m(tolyl)-3-cyclohexyl-sulfonyl-pyrrolidine-2,5-dione] | 10 (≈ 29.8 µM) | 25 (≈ 74.5 µM) | 25 (≈ 74.5 µM) | 5 (≈ 14.9 µM) | 10 (≈ 29.8 µM) | 25 (≈ 74.5 µM) | 75 (≈ 224 µM) | 100 (≈ 298 µM) | 150 (≈ 447 µM) | 5 (≈ 14.9 µM) | 10 (≈ 29.8 µM) | 25 (≈ 74.5 µM) | 10 (≈ 29.8 µM) | 25 (≈ 74.5 µM) | 50 (≈ 149 µM) | 5 (≈ 14.9 µM) | 25 (≈ 74.5 µM) | 50 (≈ 149 µM) |  |  | MIC ([3]; OKI.1282, 24 h, 24 hours): 25 µg/mL (≈ 74.5 µM); MIC ([3]; OKI.1282, 48 h, 48 hours): 25 µg/mL (≈ 74.5 µM); MIC (Candida albicans CBS.562; CBS.562, 24 h, 24 hours): 50 µg/mL (≈ 149 µM); MIC (Candida albicans CBS.562; CBS.562, 48 h, 48 hours): 100 µg/mL (≈ 298 µM)
O=C1CC(S(=O)(=O)C2CCCCC2)C(=O)N1 (centres unmarked) [3-Cyclohexyl-sulfonyl-pyrrolidine-2,5-dione] | 50 (≈ 204 µM) | 50 (≈ 204 µM) | 50 (≈ 204 µM) | 50 (≈ 204 µM) | 75 (≈ 306 µM) | 75 (≈ 306 µM) |  |  |  | 25 (≈ 102 µM) | 25 (≈ 102 µM) | 25 (≈ 102 µM) | 150 (≈ 611 µM) | 150 (≈ 611 µM) | 150 (≈ 611 µM) | 50 (≈ 204 µM) | 50 (≈ 204 µM) | 75 (≈ 306 µM) | 25 (≈ 102 µM) | 50 (≈ 204 µM) | 
COC(=O)c1ccc(N2C(=O)CC(S(=O)(=O)C3CCCCC3)C2=O)cc1OC(C)=O (centres unmarked) [Example 7, 1-(3-Acetoxy-4-methoxycarbonyl-phenyl)-3-cyclohexyl-sulfonyl-pyrrolidine-2,5-dione] | 50 (≈ 114 µM) | 50 (≈ 114 µM) | 100 (≈ 229 µM) | 25 (≈ 57.1 µM) | 25 (≈ 57.1 µM) | 50 (≈ 114 µM) | 200 (≈ 457 µM) | 200 (≈ 457 µM) | 200 (≈ 457 µM) | 10 (≈ 22.9 µM) | 10 (≈ 22.9 µM) | 10 (≈ 22.9 µM) | 50 (≈ 114 µM) | 100 (≈ 229 µM) | 150 (≈ 343 µM) | 2.5 (≈ 5.71 µM) | 2.5 (≈ 5.71 µM) | 2.5 (≈ 5.71 µM) | 10 (≈ 22.9 µM) | 2.5 (≈ 5.71 µM) | 
